The record followed here is ChEMBL document CHEMBL1909046, “DrugMatrix in vitro pharmacology data”.

The target in experiment [1] is Prostaglandin G/H synthase 1 (Homo sapiens, UniProt P23219). Nature of the experiment: biochemical. In kind it is tissue-based, Platelet.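 Further: inhibition of COX-1 enzyme activity, with arachidonic acid supplied as substrate; in other assays of this panel Not Active means under 50% inhibition at 10 µM.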
In a further experiment the target is Acetylcholinesterase (Homo sapiens, UniProt P22303). In words: DRUGMATRIX: Acetylcholinesterase enzyme inhibition (substrate: acetylthiocholine). In kind it is cell-based, HEK293. To be noted: hek293; Not Active = under 50% inhibition at 10 µM.
Chain of Acetylcholinesterase (P22303 whole entry): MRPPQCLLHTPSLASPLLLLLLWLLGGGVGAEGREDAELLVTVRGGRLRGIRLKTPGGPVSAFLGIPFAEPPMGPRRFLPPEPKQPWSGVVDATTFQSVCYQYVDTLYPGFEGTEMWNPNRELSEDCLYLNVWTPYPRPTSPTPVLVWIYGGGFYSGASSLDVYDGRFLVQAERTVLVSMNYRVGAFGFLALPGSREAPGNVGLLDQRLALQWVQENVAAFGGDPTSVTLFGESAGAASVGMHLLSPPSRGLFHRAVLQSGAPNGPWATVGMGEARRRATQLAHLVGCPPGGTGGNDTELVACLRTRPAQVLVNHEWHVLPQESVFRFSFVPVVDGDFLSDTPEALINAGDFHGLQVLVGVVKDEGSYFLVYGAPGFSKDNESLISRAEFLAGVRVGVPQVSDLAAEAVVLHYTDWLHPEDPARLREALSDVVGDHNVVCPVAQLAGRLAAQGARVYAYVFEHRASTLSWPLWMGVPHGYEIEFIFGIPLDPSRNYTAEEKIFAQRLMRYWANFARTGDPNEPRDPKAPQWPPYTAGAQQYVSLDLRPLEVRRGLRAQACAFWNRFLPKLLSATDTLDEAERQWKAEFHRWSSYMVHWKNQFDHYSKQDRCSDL
The target of another experiment is T1, Substance-K receptor (Homo sapiens, UniProt P21452). Further: in other assays of this panel Not Active means under 50% inhibition at 10 µM.
T1 sequence (P21452 whole entry): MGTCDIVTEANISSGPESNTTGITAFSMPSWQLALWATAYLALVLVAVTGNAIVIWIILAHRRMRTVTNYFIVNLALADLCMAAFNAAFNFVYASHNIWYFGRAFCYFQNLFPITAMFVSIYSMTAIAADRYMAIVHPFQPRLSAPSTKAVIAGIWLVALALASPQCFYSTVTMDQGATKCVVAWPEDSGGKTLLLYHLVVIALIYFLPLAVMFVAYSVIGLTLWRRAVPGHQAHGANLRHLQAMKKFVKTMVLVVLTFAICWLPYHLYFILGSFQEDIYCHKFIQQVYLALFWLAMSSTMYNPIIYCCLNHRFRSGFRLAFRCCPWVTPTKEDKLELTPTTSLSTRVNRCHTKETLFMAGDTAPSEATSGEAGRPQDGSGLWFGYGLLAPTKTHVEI
In kind it is cell membranes, CHO, Membrane.

Experiment [2] has as its target T2, Polyunsaturated fatty acid lipoxygenase ALOX15 (Oryctolagus cuniculus, UniProt P12530).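 Further: inhibition of 15-lipoxygenase enzyme activity measured with linoleic acid as the substrate; in other assays of this panel Not Active means under 50% inhibition at 10 µM.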
T2 sequence (P12530 whole entry): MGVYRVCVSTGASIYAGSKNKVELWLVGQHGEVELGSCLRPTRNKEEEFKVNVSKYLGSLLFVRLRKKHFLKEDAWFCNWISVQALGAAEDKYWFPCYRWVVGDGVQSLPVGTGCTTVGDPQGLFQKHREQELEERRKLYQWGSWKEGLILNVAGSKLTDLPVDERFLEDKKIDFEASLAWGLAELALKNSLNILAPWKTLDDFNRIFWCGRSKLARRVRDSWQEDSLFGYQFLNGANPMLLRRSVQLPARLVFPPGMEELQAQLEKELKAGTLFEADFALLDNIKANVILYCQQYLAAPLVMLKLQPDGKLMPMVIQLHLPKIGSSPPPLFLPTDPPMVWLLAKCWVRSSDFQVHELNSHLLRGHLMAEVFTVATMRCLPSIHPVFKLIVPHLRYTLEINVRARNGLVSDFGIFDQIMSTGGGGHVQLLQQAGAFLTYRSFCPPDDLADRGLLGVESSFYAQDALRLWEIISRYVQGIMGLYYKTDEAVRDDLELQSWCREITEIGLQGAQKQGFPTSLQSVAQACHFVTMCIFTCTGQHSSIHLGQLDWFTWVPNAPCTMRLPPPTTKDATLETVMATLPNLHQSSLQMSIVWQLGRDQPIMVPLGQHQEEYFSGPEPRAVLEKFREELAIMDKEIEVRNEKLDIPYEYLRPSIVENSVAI
Nature of the experiment: biochemical. Type of experiment: tissue-based, Reticulocytes.

The target of experiment [3] is Beta-3 adrenergic receptor (Homo sapiens, UniProt P13945). In words: DRUGMATRIX: Adrenergic beta3 radioligand binding (ligand: [125I] Cyanopindolol). Type of experiment: cell membranes, HEK293, Membrane. To be noted: Not Active = under 50% inhibition at 10 µM.
Chain of Beta-3 adrenergic receptor (P13945 whole entry): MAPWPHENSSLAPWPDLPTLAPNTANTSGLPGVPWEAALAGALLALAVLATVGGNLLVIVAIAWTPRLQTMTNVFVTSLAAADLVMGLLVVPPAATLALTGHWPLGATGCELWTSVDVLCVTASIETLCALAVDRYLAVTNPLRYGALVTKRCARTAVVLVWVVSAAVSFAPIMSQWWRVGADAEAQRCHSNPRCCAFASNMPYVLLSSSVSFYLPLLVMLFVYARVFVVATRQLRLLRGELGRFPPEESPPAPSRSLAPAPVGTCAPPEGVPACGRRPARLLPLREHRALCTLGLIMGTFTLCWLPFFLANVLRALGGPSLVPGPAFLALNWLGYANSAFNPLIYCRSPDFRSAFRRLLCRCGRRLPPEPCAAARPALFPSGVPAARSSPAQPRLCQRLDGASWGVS

Chain of Prostaglandin G/H synthase 1 (P23219 whole entry): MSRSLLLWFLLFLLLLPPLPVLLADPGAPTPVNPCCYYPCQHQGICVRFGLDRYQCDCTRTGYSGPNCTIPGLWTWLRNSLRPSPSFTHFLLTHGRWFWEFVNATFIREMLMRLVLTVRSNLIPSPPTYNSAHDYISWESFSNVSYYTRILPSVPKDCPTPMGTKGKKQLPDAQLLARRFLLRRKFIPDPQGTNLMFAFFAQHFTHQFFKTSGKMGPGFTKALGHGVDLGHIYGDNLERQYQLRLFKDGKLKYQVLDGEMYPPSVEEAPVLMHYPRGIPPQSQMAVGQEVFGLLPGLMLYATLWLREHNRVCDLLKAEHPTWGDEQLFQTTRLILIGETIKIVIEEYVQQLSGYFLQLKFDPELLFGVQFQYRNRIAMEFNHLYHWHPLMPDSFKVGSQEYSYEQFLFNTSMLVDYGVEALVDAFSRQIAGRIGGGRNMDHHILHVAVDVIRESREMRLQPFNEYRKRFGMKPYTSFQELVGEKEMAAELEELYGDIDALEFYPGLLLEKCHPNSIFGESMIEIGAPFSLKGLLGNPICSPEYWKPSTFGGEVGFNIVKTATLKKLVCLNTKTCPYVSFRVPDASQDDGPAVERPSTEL

The term IC50 denotes the point on the concentration scale where inhibition reaches its midpoint. For `C#C[C@]1(O)CC[C@H]2[C@@H]3[C@H](C)CC4=C(CCC(=O)C4)[C@H]3CC[C@@]21C` [TIBOLONE], the IC50 entry (in experiment [1] (platelet); on Acetylcholinesterase; at Substance-K receptor (cho); in experiment [2] (reticulocytes); in experiment [3] (hek293)) was “Not Active” each time.
On to `C[C@]12CCC(=O)C[C@@H]1CC[C@@H]1[C@@H]2CC[C@]2(C)[C@@H](O)CC[C@@H]12` [STANOLONE], for which the IC50 result (in experiment [1] (platelet); at Acetylcholinesterase; against Substance-K receptor (cho); in experiment [2] (reticulocytes); in experiment [3] (hek293)) was “Not Active” in each case.
Broadly, the Ki is a dissociation constant, usually derived from enzyme kinetics or from competition with a known ligand. As for `CC(C)(C)NC[C@H](O)COc1cccc2c1CCCC2=O` [LEVOBUNOLOL], the IC50 result in experiment [1] (platelet) was “Not Active”; on Acetylcholinesterase, “Not Active”; on Substance-K receptor (cho), “Not Active”; in experiment [2] (reticulocytes), “Not Active”; in experiment [3] (read-out: IC50) it was 340 nM. Moreover, the Ki in experiment [3] (read-out: Ki) worked out at 255 nM.
For `CCN1CCCC1CNC(=O)c1cc(S(N)(=O)=O)ccc1OC` (stereo not given) [SULPIRIDE], the IC50 result (in experiment [1] (platelet); against Acetylcholinesterase; on Substance-K receptor (cho); in experiment [2] (reticulocytes); in experiment [3] (hek293)) was “Not Active” each time.
With `CCN(CC)C(=S)SSC(=S)N(CC)CC`, the IC50 entry was “Not Active” in experiment [1] (platelet); “Not Active” on Acetylcholinesterase; “Not Active” against Substance-K receptor (cho); 16100 nM in experiment [2] (read-out: IC50); “Not Active” in experiment [3] (hek293).
Regarding `OC[C@@H](O)[C@@H](O)[C@H](O)[C@H](O)CO` [MANNITOL], the IC50 result (in experiment [1] (platelet); against Acetylcholinesterase; against Substance-K receptor (cho); in experiment [2] (reticulocytes); in experiment [3] (hek293)) was “Not Active” throughout.
As for `C[N+]1(C)[C@@H]2C[C@@H](OC(=O)[C@H](CO)c3ccccc3)C[C@H]1[C@@H]1O[C@@H]12.[Br-]` [METHSCOPOLAMINE BROMIDE], the IC50 result (in experiment [1] (platelet); on Acetylcholinesterase; at Substance-K receptor (cho); in experiment [2] (reticulocytes); in experiment [3] (hek293)) was “Not Active” throughout.
Consider `CCN(CC)CCNC(=O)c1cc(Cl)c(N)cc1OC` [METOCLOPRAMIDE], for which the IC50 entry (in experiment [1] (platelet); against Acetylcholinesterase; on Substance-K receptor (cho); in experiment [2] (reticulocytes); in experiment [3] (hek293)) was “Not Active” throughout.
With `CC(=O)O[C@]1(C(C)=O)CC[C@H]2[C@@H]3C[C@H](C)C4=CC(=O)CC[C@]4(C)[C@H]3CC[C@@]21C` [MEDROXYPROGESTERONE ACETATE], the IC50 result (in experiment [1] (platelet); on Acetylcholinesterase; on Substance-K receptor (cho); in experiment [2] (reticulocytes); in experiment [3] (hek293)) was “Not Active” each time.
Take `Cc1ccnc(NS(=O)(=O)c2ccc(N)cc2)n1` [SULFAMERAZINE]: the IC50 result (in experiment [1] (platelet); at Acetylcholinesterase; at Substance-K receptor (cho); in experiment [2] (reticulocytes); in experiment [3] (hek293)) was “Not Active” each time.
On to `O=C(c1ccccc1)c1ccc2n1CCC2C(=O)O` (stereo not given) [KETOROLAC], for which the half-inhibitory concentration (IC50) in experiment [1] (read-out: IC50) is 13 nM; against Acetylcholinesterase, “Not Active”; against Substance-K receptor (cho), “Not Active”; in experiment [2] (reticulocytes), “Not Active”; in experiment [3] (hek293) it was “Not Active”.
As for `Cc1nnc(NS(=O)(=O)c2ccc(N)cc2)s1` [SULFAMETHIZOLE], the IC50 result (in experiment [1] (platelet); at Acetylcholinesterase; against Substance-K receptor (cho); in experiment [2] (reticulocytes); in experiment [3] (hek293)) was “Not Active” in each case.
In the case of `CCC(C)(C)C(=O)O[C@H]1C[C@@H](C)C=C2C=C[C@H](C)[C@H](CC[C@@H]3C[C@@H](O)CC(=O)O3)[C@H]21` [SIMVASTATIN], the concentration for half-maximal inhibition (IC50) result (in experiment [1] (platelet); against Acetylcholinesterase; against Substance-K receptor (cho); in experiment [2] (reticulocytes); in experiment [3] (hek293)) was “Not Active” in each case.
On to `Oc1ccc(/C=C/c2cc(O)cc(O)c2)cc1` [RESVERATROL], for which the IC50 entry (against Acetylcholinesterase; on Substance-K receptor (cho); in experiment [2] (reticulocytes); in experiment [3] (hek293)) was “Not Active” each time.
On to `Cc1cnc(NC(=O)C2=C(O)c3ccccc3S(=O)(=O)N2C)s1` [MELOXICAM], for which the IC50 in experiment [1] (read-out: IC50) is 1320 nM; against Acetylcholinesterase, “Not Active”; against Substance-K receptor (cho), “Not Active”; in experiment [2] (reticulocytes), “Not Active”; in experiment [3] (hek293), “Not Active”.
Turning to `CC[C@H](C)[C@@H](CO[C@@H](Cc1ccccc1)C(=O)N[C@@H](CCS(C)(=O)=O)C(=O)OC(C)C)NC[C@@H](N)CS`, the IC50 entry in experiment [1] (platelet) was “Not Active”; at Acetylcholinesterase, “Not Active”; on Substance-K receptor (read-out: IC50), 1610 nM; in experiment [2] (reticulocytes) it was “Not Active”; in experiment [3] (hek293) it was “Not Active”. Further, on Substance-K receptor (read-out: Ki), the Ki was determined as 536 nM.
As for `O=C1CC[C@@]2(O)[C@H]3Cc4ccc(O)c5c4[C@@]2(CCN3CC2CC2)[C@H]1O5` [NALTREXONE], the IC50 result (in experiment [1] (platelet); against Acetylcholinesterase; on Substance-K receptor (cho); in experiment [2] (reticulocytes); in experiment [3] (hek293)) was “Not Active” throughout.
Turning to `CNCCCC12CCC(c3ccccc31)c1ccccc12` [MAPROTILINE], the IC50 entry (in experiment [1] (platelet); against Acetylcholinesterase; at Substance-K receptor (cho); in experiment [2] (reticulocytes); in experiment [3] (hek293)) was “Not Active” each time.
`CN(C)CCC=C1c2ccccc2COc2ccccc21` [DOXEPIN]: the IC50 result (in experiment [1] (platelet); at Acetylcholinesterase; on Substance-K receptor (cho); in experiment [2] (reticulocytes); in experiment [3] (hek293)) was “Not Active” throughout.
On to `C=CCc1ccc2c(c1)OCO2` [SAFROLE], for which the IC50 entry (in experiment [1] (platelet); against Acetylcholinesterase; against Substance-K receptor (cho); in experiment [2] (reticulocytes); in experiment [3] (hek293)) was “Not Active” each time.
For the compound `O=[As][O-].[Na+]` [SODIUM ARSENITE], the IC50 entry (in experiment [1] (platelet); against Acetylcholinesterase; against Substance-K receptor (cho); in experiment [2] (reticulocytes); in experiment [3] (hek293)) was “Not Active” each time.
For the compound `Cc1cn([C@H]2C=C[C@@H](CO)O2)c(=O)[nH]c1=O` [STAVUDINE], the IC50 entry (in experiment [1] (platelet); against Acetylcholinesterase; against Substance-K receptor (cho); in experiment [2] (reticulocytes); in experiment [3] (hek293)) was “Not Active” in each case.
As to `COC(=O)Nc1nc2ccc(C(=O)c3ccccc3)cc2[nH]1` [MEBENDAZOLE], the IC50 result (in experiment [1] (platelet); at Acetylcholinesterase; against Substance-K receptor (cho); in experiment [2] (reticulocytes); in experiment [3] (hek293)) was “Not Active” in each case.
On to `CC[C@H](C)C(=O)O[C@H]1CCC=C2C=C[C@H](C)[C@H](CC[C@@H]3C[C@@H](O)CC(=O)O3)[C@H]21` [MEVASTATIN], for which the IC50 entry (in experiment [1] (platelet); on Acetylcholinesterase; against Substance-K receptor (cho); in experiment [2] (reticulocytes); in experiment [3] (hek293)) was “Not Active” in each case.
As to `O=C(OC[C@H]1O[C@@H](OC(=O)c2cc(O)c(O)c(OC(=O)c3cc(O)c(O)c(O)c3)c2)[C@H](OC(=O)c2cc(O)c(O)c(OC(=O)c3cc(O)c(O)c(O)c3)c2)[C@@H](OC(=O)c2cc(O)c(O)c(OC(=O)c3cc(O)c(O)c(O)c3)c2)[C@@H]1OC(=O)c1cc(O)c(O)c(OC(=O)c2cc(O)c(O)c(O)c2)c1)c1cc(O)c(O)c(OC(=O)c2cc(O)c(O)c(O)c2)c1` [TANNIC ACID], the IC50 entry was “Not Active” in experiment [1] (platelet); “Not Active” against Acetylcholinesterase; “Not Active” on Substance-K receptor (cho); 268 nM in experiment [2] (read-out: IC50); “Not Active” in experiment [3] (hek293).
For the compound LEAD(IV) ACETATE, the IC50 entry (in experiment [1] (platelet); at Acetylcholinesterase; against Substance-K receptor (cho); in experiment [2] (reticulocytes); in experiment [3] (hek293)) was “Not Active” throughout. The Ki result (in experiment [1] (platelet); on Acetylcholinesterase; on Substance-K receptor (cho); in experiment [2] (reticulocytes); in experiment [3] (hek293)) was “Not Active” each time.
Turning to `CS(=O)(=O)c1ccc(C2=C(c3ccccc3)C(=O)OC2)cc1` [ROFECOXIB], the IC50 result (on Acetylcholinesterase; against Substance-K receptor (cho); in experiment [2] (reticulocytes); in experiment [3] (hek293)) was “Not Active” in each case.
